# From patent publication US11465980B2, “6-membered aza-heterocyclic containing delta-opioid receptor modulating compounds, methods of using and making the same” (Trevena, Inc., priority 2015, dated 2022)
# Experiments:
# [1] = tested on: adult male C57 mice; experiment: Tail suspension test (TST); assay type: in vivo, mouse; settings: route sc, po; p < 0.05 compared to vehicle-treated mice
# Description: The experiments were performed using adult male C57 mice (6-10 weeks of age, 20-30 g, Hilltop Lab, PA). The mice were housed in standard rodent cages with stainless steel mesh wire bar lids in groups of 4 with controlled temperature and light cycle (6:00 a.m.-6:00 p.m.). Animals were given free access to food (Harlan Teklad Global 18% protein (Madison, Wis.)) and water during a minimum 2-day habituation period to the laboratory. Animals that were used in the study were handled, housed, and sacrificed (using compressed CO2) in accord with the current NIH guidelines regarding the use and care of laboratory animals, and all applicable local, state, and federal regulations and guidelines. Animals are identified by cage number, and by markings applied to the proximal tip of the tail using a permanent marker. Group sizes (n=8, and therefore 30-50 animals per study) provide reliable estimates of treatment effects, and this species and strain of mouse has been recognized as appropriate for pharmacology studies.
# To measure efficacy of the compounds the compounds were tested using a tail suspension test. The tail suspension test is a behavioral test used to evaluate the efficacy of antidepressant drugs in rodents. In the TST, mice (n=8/group) were suspended by the tail with tape approximately 30-50 cm above the lab bench. Mice are positioned such that the base of their tail is perpendicular to the lab bench. Each mouse is given 1 trial that last 6 minutes. The total duration of immobility is calculated as the percentage of time that the mouse is immobile. The duration of immobility is the main parameter measured. This is calculated from the cumulated time during which the animals is absent of initiated movements including passive swaying. When antidepressant drugs are administered, immobility is decreased by a variety of classes of antidepressant drugs. One or more of the compounds show antidepressant activity.
# [2] = tested on: male c57bl6J mice; experiment: Reversal of tactile allodynia produced by repeat dosing of sumatriptan (medication overuse headache); assay type: in vivo, mouse; settings: 10 mg/kg s.c., 30 min prior to testing; sumatriptan 0.6 mg/kg i.p. daily for 11 days; FIG. 3
# Description: Compounds were evaluated for their ability to treat Medication Overuse Headache (“MOH”). Assessment of reversal of tactile allodynia produced by repeat dosing of sumatriptan in mice: Mice (44 male c57bl6J mice, n=8-9/group) were habituated for 2 days on testing rack prior to injections. Mice were treated with vehicle (VEH-VEH (saline) VEH-B1049 (10% BCD-saline)) or sumatriptan (SUMA) (0.6 mg/kg, i.p.) daily for 11 days. Mechanical sensitivity was measured as the 50% withdrawal threshold to manual von Frey hair stimulation on day 12. Baseline measurement were taken 24 hours after final SUMA/VEH injection and 3 h later, post-drug measurements were taken after dosing with B1049 (10 mg/kg, s.c., 30 min prior to testing) or SNC80 (10 mg/kg, i.p., 45 min prior to testing). (***p<0.001 compared to post-drug SUMA-VEH). The results are illustrated in FIG. 3.
structure (smiles),measurement,setting,value
"COCCOc1cccc([C@@H]2CCN(CCn3cccc3)[C@H](C)[C@H]2COc2ccc3c(c2)C(=O)NC3)c1 (relative stereo) [Compound B1049, (−)-6-{[(trans, trans)-4-[3-(2-methoxyethoxy)phenyl]-2-methyl-1-[2-(1H-pyrrol-1-yl)ethyl]piperidin-3-yl]methoxy}-2,3-dihydro-1H-isoindol-1-one]",Active TST Dose,[1],≤30 mg/kg
same,reversal of tactile allodynia produced by repeat dosing of sumatriptan,[2],able to reverse tactile allodynia produced by repeat dosing of sumatriptan
